Assay: Human HepG2 cell viability assay in 384 well format
Type: toxicity, cell-based
Design: dose 125 nL, time 70.5 hour; cytotoxicity at 70.5 h: concentration not given beside the values
Conditions: HepG2 cells, read-out: Inhibition

Row | Compound | cytotoxicity at 70.5 h [%]
1 | O=C(O)c1nnn(Cc2cccc(C(F)(F)F)c2)c1-c1ccncc1 | -8.89
2 | O=C(CCc1ccc(F)cc1)NS(=O)(=O)c1ccc2c(c1)OCCO2 | -4.67
3 | CCNC(=O)N1CCC(NC(=O)NCCc2cccc(C)c2)C1 (centres undefined) | 4.49
4 | CN(C)C(=O)CNC(=O)c1cc2ccccc2nc1N1CCCC1 | -7.99
5 | Cn1nc(Cn2ccnc2)c2c1CN(c1nccs1)C2 | -5.95
6 | O=C(c1cnc(NCCC2CCCO2)c(Cl)c1)N1CCOCC1 (centres undefined) | -7.98
7 | CCC(=O)N1CCC(NC2CCSCC2)C1 (centres undefined) | -8.75
8 | Cc1ccc(OC2(C(=O)O)CCN(C(=O)c3cccs3)CC2)cn1 | 17.4
9 | O=C(NC1(C(=O)O)CCCCC1)C1Cc2ccccc2O1 (centres undefined) | -3.59
10 | O=C(O)c1cnc(OCC2CC2)c(Cl)c1 | -0.42
11 | COc1ccccc1C(=O)NCc1n[nH]c(C)n1 | 0.0224
12 | O=C(O)C1(Cc2ccc(F)cc2F)CCCN(Cc2ccccn2)C1 (centres undefined) | -5.82
13 | CC(C)(C)OC(=O)NCC1CCCCN1Cc1ccncc1 (centres undefined) | -1.8
14 | Cc1cccc(N2CC(c3nnc(N)s3)CC2=O)c1 (centres undefined) | -13.7
15 | Cc1cnn(C2CN(Cc3nc(-c4cccnc4)no3)C2)c1 | 1.92
16 | O=C(CN1CCOCC1)N1CCC2(CCCN(C3CCOCC3)C2=O)C1 (centres undefined) | 0.199
17 | CC(=O)N1CCC(NS(=O)(=O)c2cccnc2)CC1 | 8
18 | Cc1ccc(-c2ncc(C(=O)NCCNc3ncccn3)s2)c(C)c1 | 3.03
19 | O=C(C1CCCC1)N1CCC(C(O)c2ccc(F)cc2)CC1 (centres undefined) | -6.02
20 | O=C(c1cnc(Nc2ccccc2)nc1)N1CCC(O)(CO)CC1 | -6.53
21 | Cc1nc(C)n(CC2CCCN(Cc3nnc(-c4ccco4)o3)C2)n1 (centres undefined) | -2.38
22 | O=C(NCc1ccc(F)cc1)N1CCN(CC(O)C2CC2)CC1 (centres undefined) | -2.01
23 | Cn1c(CN2CCCC2c2noc(C3CC3)n2)cc(=O)n(C)c1=O (centres undefined) | -9.32

Row | Compound | cytotoxicity at 70.5 h [%]
24 | CN(C)C(=O)CO[C@H]1CN(Cc2cccc(F)c2)[C@@H]2CCCO[C@H]12 | -0.497
25 | CS(=O)(=O)c1ccc(NC(=O)NC2(c3cccc(F)c3)CC2)cc1 | -7.54
26 | Cc1cc(C)nc(N2C[C@H]3OC(=O)N(CCc4cccc(Cl)c4)[C@H]3C2)n1 | -0.529
27 | CNC(=O)[C@@H]1COC[C@H]2CN(C(=O)c3ccc(C)c(C)c3)C[C@H]21 | -7.79
28 | O=C(CN1CCCCC1)Nc1ncc(Br)cc1Br | 48.9
29 | CN(CCCc1cnn(C)c1)Cc1cc2n(n1)CCCNC2 | -14.1
30 | C1CCN(CCOC2CCNCC2)CC1 | 19.9
31 | COc1cc(O)cc2c1C(=O)CC(c1ccc(O)cc1)O2 (centres undefined) | -14
32 | O=c1ccc2c([nH]1)CCN(S(=O)(=O)c1ccc3c(c1)CCCC3)C2 | 3.55
33 | CCc1csc(C2CCCN(C(=O)c3c[nH]c(C)n3)C2)n1 (centres undefined) | -12
34 | CCn1cc(CN2CCCN(C(=O)c3ccco3)CC2)cn1 | -6.43
35 | Cn1cc(CN2C[C@@H]3CN(Cc4ccoc4)CCO[C@@H]3C2)cn1 | -3.44
36 | CCC(Nc1nc(C)nc2onc(C)c12)c1nc(C)c(C)s1 (centres undefined) | 24.7
37 | Cn1cnc(S(=O)(=O)NCC(C)(O)c2ccc3c(c2)OCO3)c1 (centres undefined) | -6.14
38 | CN1CCCCCC1C(=O)N1CCN(c2ccccc2C#N)CC1 (centres undefined) | -8.6
39 | CCOC(C)c1noc(CN2CCN(CC3CCCC3)CC2)n1 (centres undefined) | -6.48
40 | O=C(c1ccc(=O)[nH]n1)N1CCCC1CCc1ccccc1 (centres undefined) | -11.9
41 | CCOc1ccc(CC(CNC(=O)c2ccc(C)o2)C(N)=O)cc1 (centres undefined) | -10.7
42 | CCC(=O)N1CCC2(C=C(C(=O)N3CCCC3)c3ccccc32)CC1 | 8.56
43 | Cc1noc(C)c1CC(=O)N1CC[C@@](C)(O)[C@H](Oc2ccccc2)C1 | -2.99
44 | Cc1ccccc1C(=O)N1C[C@@H]2[C@@H](CN(C)CCc3ccccn3)[C@@H]2C1 | -8.54
45 | COCCNC(=O)c1cnc(N(C)C)nc1C | -5.03
46 | COCCCN(C)c1nc(-c2ccncc2)nc(C)c1C | -5.34

Row | Compound | cytotoxicity at 70.5 h [%]
47 | CC(C)(C)C(=O)N1C[C@H](c2ccsc2)[C@H]2CN(Cc3cccs3)CC[C@H]21 | 0.661
48 | CC1(C)CC(CN2CCC3(CCC(=O)N(CCO)C3)CC2)CCO1 (centres undefined) | -10.6
49 | CC(C)Cc1noc(CN(C)c2ncccn2)n1 | -3.77
50 | CC(=O)N1CCc2[nH]cnc2C12CCN(CC1CCOC1)CC2 (centres undefined) | -5.5
51 | c1cc(-c2nnc3sc(CCN4CCCC4)nn23)ccn1 | -9.13
52 | Cc1ccnc(C2CCN(C(=O)c3cnn(C)c3)CC2)n1 | 23.3
53 | CC(=O)N1CCCC2(C1)CN(C(=O)c1ccncc1)CCO2 (centres undefined) | -15.7
54 | CO[C@@H]1CCN(S(=O)(=O)c2cccs2)[C@H]1Cc1ccccc1 | -0.149
55 | O=C(NC1CC1)[C@@H]1CCO[C@@H]2CCN(C3CCOCC3)C[C@H]21 | -4.77
56 | Cc1ccc([C@@H]2CN(C(=O)c3ccsc3)C[C@H]2NC(=O)C2CC2)cc1 | -8.66
57 | Cc1nn(C)c(C)c1OCC(=O)NCc1cccc(CO)c1 | 2.69
58 | CCc1ccc(CN2Cc3nccn3CC(Cn3cncn3)C2)o1 (centres undefined) | 2.9
59 | CN1CCOC[C@H]1c1nc(-c2ccc(F)cc2F)c[nH]1 | -0.919
60 | COCCc1noc(CNC2CCCN(c3cccnn3)C2)n1 (centres undefined) | 11
61 | CC(C)Nc1ncc(-c2ccncc2)c([C@@H]2CCCO2)n1 | -8.69
62 | Cc1cc(CNC(=O)C2CCCCN2C(=O)OC(C)(C)C)no1 (centres undefined) | -10.1
63 | Cc1cc(C2CCC2)nc(N(C)Cc2cc(-c3ccccn3)no2)n1 | -6.04
64 | CN(C)c1ccc(CNC2=NCCCN2)cc1 | 13.3
65 | CSCC(C)(O)CNC(=O)Nc1cc(C)cc(C)c1 (centres undefined) | -5.72
66 | CC(NC(=O)CCn1cccn1)c1cn(-c2ccccc2)nn1 (centres undefined) | -5.23
67 | c1ccc2ncc(CC3CCNC3)cc2c1 (centres undefined) | 19.8
68 | COc1ccc(-c2n[nH]cc2CNC2CCN(C3CC3)CC2)cc1 | -2.67
69 | CCc1ccsc1C(=O)N1CCCN(Cc2cnn(CC)c2)CC1 | 7.56

Row | Compound | cytotoxicity at 70.5 h [%]
70 | CN1C[C@@H](F)[C@@H](OCc2nc3ccc(C#N)cc3[nH]2)C1 | -2.32
71 | Cc1nc(C)c(-c2ccn(CC(=O)Nc3cnn(C)n3)n2)s1 | 8.07
72 | COc1cccc(COCC(=O)N2CCN(S(C)(=O)=O)CC2)c1 | -4.61
73 | CN(Cc1cccs1)C1CCC[C@@H]2CN(C(=O)c3cccn3C)C[C@H]12 (some centres undefined) | -12.3
74 | Cn1cc(NCCOc2ccc(F)cc2)cn1 | -5.12
75 | CCC(=O)N1CCCC1c1nccnc1Nc1nc(C)cc(C)n1 (centres undefined) | -14
76 | COc1ccc(OC)c2c(C)cc(N(C)CCCO)nc12 | 4.59
77 | CCC(N)c1ccccc1OCC(=O)N1CCCC1 (centres undefined) | -7.75
78 | CCOc1ccccc1CSCCn1nc2ccccn2c1=O | -10.1
79 | Cn1ccc(NC(=O)Cc2ccccc2F)n1 | 19.9
80 | Cc1ccc(CN2CCS(=O)(=O)C(C)(C)C2)cc1C | 20.3
81 | CC(C(=O)NCc1ccc(-n2cncn2)nc1)S(C)(=O)=O (centres undefined) | 0.438
82 | Cc1ccc(N2CCCC(N(C)Cc3noc(C4CC4)n3)C2)nn1 (centres undefined) | -9.69
83 | O=C([C@H]1COC[C@H]2CN(CC3CC3)C[C@H]21)N1CCOCC1 | -2.68
84 | COc1ccc(-c2ccoc2)cc1CNC1CCCC1 | 10.7
85 | O=C1N(Cc2ccncc2)CCC12CCCN(c1ncc(F)cn1)C2 (centres undefined) | 14.6
86 | CN(Cc1ccco1)C(=O)[C@H]1CSCN1C(=O)OC(C)(C)C | -1.49
87 | Cc1noc2ncc(C(=O)NCC3CCCO3)cc12 (centres undefined) | -7.11
88 | Cc1ccc(CN2CCC3(CCN(S(=O)(=O)c4ccccc4)C3)C2)o1 (centres undefined) | 27.1
89 | CCOCc1nc2c(c(NC(COC)c3ccccn3)n1)CCNCC2 (centres undefined) | -3.42
90 | COc1ccc(-c2nc(CNCCn3cccn3)cs2)cc1 | -5.1
91 | O=S(=O)(N1CCOCC1)N1CCc2sccc2C1 | 6.06
92 | CC(C)NC(=O)N1CC[C@@H](N(C)C)[C@@H]1Cc1ccccc1 | -10.3

Row | Compound | cytotoxicity at 70.5 h [%]
93 | Cc1ccc(-n2ccc3nc(N4CCCC4)ncc3c2=O)cc1C | 9.54
94 | CN1CCN(c2ncccn2)CC1C(N)=O (centres undefined) | 36.7
95 | CCc1ncc(C(=O)NCCN(C)S(C)(=O)=O)cn1 | 17.2
96 | CN(CCN(C)S(=O)(=O)CC1CCOCC1)c1ccccc1 | -3.42
97 | Fc1cccc(-c2nnn3c2COCC(CNCc2nccs2)C3)c1 (centres undefined) | -11.8
98 | CCn1cc(CN2CCCN(C(=O)c3ccc(C)nc3)CC2)cn1 | -6.02
99 | COCC1CC2(CCN(Cc3cccnc3)CC2)CN1C(C)C (centres undefined) | -7.91
100 | Cc1ccc2[nH]c(CO[C@H]3CN(c4ccc(C#N)cn4)C[C@H]3F)nc2c1 | -3.04
101 | Cn1c(NCC(O)c2ccc(F)cc2F)c(C#N)c(=O)n(C)c1=O (centres undefined) | -5.92
102 | O=C1NCCN1C1CCN(Cc2coc(-c3ccc(F)cc3)n2)CC1 | -2.32
103 | Cc1nc(C)n(CC2CN(CCc3ccccn3)CCO2)n1 (centres undefined) | -7.39
104 | CNC(=O)[C@@H]1C[C@@H](N)CN1Cc1cc2cc(C)cc(C)c2[nH]c1=O | -12
105 | COc1ccc(C(=O)N(Cc2cnn(C)c2)C(C)C)cc1Br | -9.53
106 | O=C(N1CCCO1)[C@@]12CCO[C@@H]1CCN(Cc1ccccn1)C2 | 2.18
107 | Cc1nccc(NCc2cncc3c2CCN(CC2CCOC2)C3)n1 (centres undefined) | 5.73
108 | NCC(CO)Cc1ccc(C(F)(F)F)cc1 (centres undefined) | 4.66
109 | CCc1c(C)[nH]c(C(C)(N)CC)nc1=O (centres undefined) | -10.4
110 | O=C(Cc1cccnc1)N1CCC2(CCN(C3CCOC3)CC2)C1 (centres undefined) | 20.9
111 | O=C(COCc1nc(-c2ccncc2)no1)N1CCCCCC1 | -5.87
112 | Cn1ccnc1CN1CCN(CC(=O)NCc2cccs2)CC1 | 13.9
113 | CCN1CC(C(=O)N2CCN(CCn3cccc3)CC2)CCC1=O (centres undefined) | 1.29
114 | Cc1nsc(C(=O)NCCc2ccccc2)n1 | -8.39
